Measurements taken from patent US6514952B1, “Hydantoin derivatives as inhibitors of leucocyte adhesion and as VLA-4 antagonists” (Hoechst Aktiengesellschaft, priority 1996, dated 2003).

Molecular target: T1, interaction between VCAM-1 and VLA-4 (Homo sapiens, UniProt P05556+P13612)
T1 construct: the VLA-4-integrins, are offered in their natural form as surface molecules on human U937 cells; host or cells: U937 cells (VLA-4, endogenous); hVCAM-1(1-3)-IgG from supernatant of transfected COS cells (ATCC CRL1651)
T1 sequence (P13612 34-1032): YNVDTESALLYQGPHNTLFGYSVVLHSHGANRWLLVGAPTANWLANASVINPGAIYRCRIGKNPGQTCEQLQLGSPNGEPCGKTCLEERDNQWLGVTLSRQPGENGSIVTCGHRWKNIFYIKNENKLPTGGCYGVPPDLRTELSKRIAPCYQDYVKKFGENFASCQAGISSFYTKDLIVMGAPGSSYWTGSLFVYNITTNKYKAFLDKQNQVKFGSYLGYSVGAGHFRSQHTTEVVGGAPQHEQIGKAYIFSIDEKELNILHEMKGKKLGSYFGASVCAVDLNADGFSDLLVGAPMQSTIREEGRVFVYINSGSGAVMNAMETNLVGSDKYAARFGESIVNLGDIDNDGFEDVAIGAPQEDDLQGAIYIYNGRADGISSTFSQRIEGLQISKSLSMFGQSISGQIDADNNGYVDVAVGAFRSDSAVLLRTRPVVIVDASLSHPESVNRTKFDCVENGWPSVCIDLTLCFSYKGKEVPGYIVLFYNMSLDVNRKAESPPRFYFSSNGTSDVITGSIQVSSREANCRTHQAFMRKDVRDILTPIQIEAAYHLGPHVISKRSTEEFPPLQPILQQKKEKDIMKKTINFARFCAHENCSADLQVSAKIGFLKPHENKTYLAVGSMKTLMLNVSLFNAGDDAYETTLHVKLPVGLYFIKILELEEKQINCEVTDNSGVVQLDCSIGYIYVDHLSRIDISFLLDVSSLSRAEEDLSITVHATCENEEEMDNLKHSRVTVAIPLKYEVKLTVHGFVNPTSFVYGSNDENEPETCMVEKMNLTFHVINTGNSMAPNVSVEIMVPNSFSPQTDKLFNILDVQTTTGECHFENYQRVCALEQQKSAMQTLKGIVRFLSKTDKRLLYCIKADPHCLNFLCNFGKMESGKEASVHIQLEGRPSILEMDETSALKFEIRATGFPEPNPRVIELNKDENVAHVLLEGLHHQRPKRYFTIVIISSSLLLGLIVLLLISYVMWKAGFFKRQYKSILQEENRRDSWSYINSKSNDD
T1 sequence (P05556 21-798): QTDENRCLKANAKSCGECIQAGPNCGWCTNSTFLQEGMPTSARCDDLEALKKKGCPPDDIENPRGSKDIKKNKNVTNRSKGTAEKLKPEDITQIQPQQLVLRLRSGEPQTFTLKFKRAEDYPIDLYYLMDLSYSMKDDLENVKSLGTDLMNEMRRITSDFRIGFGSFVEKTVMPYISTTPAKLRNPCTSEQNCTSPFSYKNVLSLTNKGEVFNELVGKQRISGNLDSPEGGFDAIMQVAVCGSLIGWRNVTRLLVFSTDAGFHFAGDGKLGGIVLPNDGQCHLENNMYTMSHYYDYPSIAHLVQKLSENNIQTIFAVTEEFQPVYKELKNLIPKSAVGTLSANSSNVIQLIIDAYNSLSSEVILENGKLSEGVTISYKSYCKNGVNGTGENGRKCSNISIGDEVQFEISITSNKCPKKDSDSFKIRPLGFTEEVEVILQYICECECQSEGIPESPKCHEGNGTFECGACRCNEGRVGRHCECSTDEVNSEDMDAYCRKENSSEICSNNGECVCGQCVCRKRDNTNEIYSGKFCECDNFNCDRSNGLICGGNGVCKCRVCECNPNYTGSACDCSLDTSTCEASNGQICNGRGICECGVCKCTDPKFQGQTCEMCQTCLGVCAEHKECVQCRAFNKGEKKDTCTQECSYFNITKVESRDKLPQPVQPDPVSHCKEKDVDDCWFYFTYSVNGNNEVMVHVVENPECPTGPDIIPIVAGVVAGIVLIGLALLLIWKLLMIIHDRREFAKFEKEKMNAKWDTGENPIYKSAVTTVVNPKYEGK
Test: U937/VCAM-1 cell adhesion test (adhesion of U937 cells to hVCAM-1(1-3)-IgG)
Format: cell-based
Conditions: inhibition of adhesion of human U937 cells (ATCC CRL 1593) to hVCAM-1(1-3)-IgG
Source text: As a test method for the activity of the compounds of the formula I on the interaction between VCAM-1 and VLA-4, an assay is used which is specific for this interaction. The cellular binding components, i.e. the VLA-4-integrins, are offered in their natural form as surface molecules on human U937 cells (ATCC CRL 1593), which belong to the group of leucocytes. As specific binding components, recombinant soluble fusion proteins, prepared by genetic engineering and consisting of the extracytoplasmic domains of human VCAM-1 and the constant region of a human immunoglobulin of the subclass IgG1, are used.
Assay for the Measurement of the Adhesion of U937 Cells (ATCC CRL 1593) to hVCAM-1(1-3)-IgG
1. Preparation of Human VCAM-1(1-3)-IgG and Human CD4-IgG
A genetic construct for the expression of the extracellular domains of human VCAM-1 was employed, associated with the genetic sequence of the heavy chain of human immunoglobulin IgG1 (hinge, CH2 and CH3 regions), from Dr. Brian Seed, Massachusetts General Hospital, Boston, USA. The soluble fusion protein hVCAM-1(1-3)-IgG contained the throe amino-terminal extracellular immunoglobulin-like domains of human VCAM-1 (Damle and Aruffo, Proc. Natl. Acad. Sci. USA 1991, 88, 6403). CD4-IgG (Zettlmeissl et al., DNA and Cell Biology 1990, 9, 347) served as a fusion protein for negative controls. The recombinant proteins were expressed as soluble proteins after DEAE/dextran-mediated DNA-transfection in COS cells (ATCC CRL1651) according to standard procedures (Ausubel et al., Current protocols in molecular biology, John Wiley & Sons, Inc., 1994).
2. Assay for the Measurement of the Adhesion of U937 Cells to hVCAM-1(1-3)-IgG
2.1 96-well microtiter test plates (Nunc Maxisorb) were incubated at room temperature for 1 hour with 100 μl/well of a goat-anti-human IgG antibody solution (10 μg/ml in 50 mM Tris, pH 9.5). After removing the antibody solution, washing was carried out once with PBS.
2.2 150 μl/well of a blocking buffer (1% BSA in PBS) was incubated on the plates at room temperature for 0.5 hour. […]

IC50	SMILES
7.5 µM	CC1(c2ccc(C(N)=O)cc2)C(=O)N(CC(=O)N[C@@H](CC(=O)O)C(=O)N[C@H](C(=O)O)c2ccccc2)C(=O)N1Cc1ccccc1 (stereo partly drawn) [Example 1]
14.5 µM	CC1(c2ccc(C3=NCCN3)cc2)C(=O)N(CC(=O)N[C@@H](CC(=O)O)C(=O)N[C@H](C(=O)O)c2ccccc2)C(=O)N1Cc1ccc2ccccc2c1 (stereo partly drawn) [Example 2, ((R,S)-4-(4-(4,5-Dihydro-2-imidazolyl)phenyl)-3-(2-naphthylmethyl)-4-methyl-2,5-dioxoimidazolidin-1-yl)acetyl-L-aspartyl-L-phenylglycine]
40 µM	CC1(c2ccc(C3=NCCN3)cc2)C(=O)N(CC(=O)NC[C@H](NC(=O)OCC23CC4CC(CC(C4)C2)C3)C(=O)O)C(=O)N1Cc1ccc2ccccc2c1 (stereo partly drawn) [Example 3, (S)-3-(((R,S)-4-(4-(4,5-Dihydro-2-imidazolyl)phenyl)-3-(2-naphthylmethyl)-4-methyl-2,5-dioxoimidazolidin-1-yl)acetylamino)-2-(1-adamantyl-methyloxycarbonylamino)propionic Acid]
